Measurements taken from patent US9353423B2, “HCV genotype 6 replicons” (priority 2012, dated 2016).
Read-outs that look alike come from different tables or passages of the source.

Experiments:
Pi-GT1b-Rluc replicon = assay: Replicon antiviral assay, transient transfection, luciferase activity (GT1b); format: cell-based, Hepatitis C virus genotype 1b; settings: Hepatitis C virus
Procedure: (§1) Replicon RNA were electroporated into 1C cells as described above. After transfection, cells were quickly transferred into 100 mL of pre-warmed culture medium, and 90 μl was seeded in 384-well plates at a density of 2,000 cells/well. Cells were treated with three-fold serial drug dilutions at 10 different concentrations. Cell plates were incubated at 37° C. for 3 days, after which culture medium was removed and cells were assayed for luciferase activity as markers for replicon levels. Luciferase expression was quantified using a commercial luciferase assay (Promega). Luciferase levels were converted into percentages relative to the levels in the untreated controls (defined as 100%), and data were fitted to the logistic dose-response equation y=a/[1+(x/b)^c] using XLFit4 software (IDBS, Emeryville, Calif.).
(§2) Five different classes of HCV inhibitors as listed in the first column were evaluated for their antiviral activities against Pi-GT6a-Rluc and Pi-GT1b-Rluc replicons in a high throughput 384-well transient transfection assay, by measuring luciferase activity (Table 5). The data represents an average of at least two independent experiments with standard deviations.

GT6aRluc-K34R replicon = assay: Replicon antiviral assay, transient transfection, luciferase activity (GT6a, NS4A K34R); format: cell-based, Hepatitis C virus genotype 6a; settings: for EC50: Hepatitis C virus, 1C cells, 384-well transient transfection, mean ± SD of at least two experiments
Procedure: as §1, §2

GT6aRluc-K272R replicon = assay: Replicon antiviral assay, transient transfection, luciferase activity (GT6a, NS3 K272R); format: cell-based, Hepatitis C virus genotype 6a; settings: for EC50: Hepatitis C virus, 1C cells, 384-well transient transfection, mean ± SD of at least two experiments
Procedure: as §1, §2

Pi-GT6a-Rluc replicon = assay: Replicon antiviral assay, luciferase-encoding GT6a replicon (Table 4); format: cell-based, Hepatitis C virus genotype 6a; settings: for EC50: Hepatitis C virus, GT6A, 72 h, read-out: GT6a EC50
Procedure: as §1

[1] = Table 5, 1C cells, 384-well transient transfection, mean ± SD of at least two experiments, read-out: GT1bRluc EC50
[2] = read-out: GT6aRluc-K34R EC50, Table 5
[3] = read-out: GT6aRluc-K272R EC50, Table 5
[4] = 72 h, Table 4, 1C cells, 384-well, 3 days, mean ± SD, read-out: GT1b EC50
[5] = Table 4, 1C cells, 384-well, 3 days, mean ± SD, adaptive mutation not stated
[6] = Table 5, read-out: GT6aRluc-K34R EC50
[7] = Table 5, read-out: GT6aRluc-K272R EC50

| Structure (SMILES) | EC50 (Pi-GT1b-Rluc replicon; [1]) [nM] | EC50 (GT6aRluc-K34R replicon; [2]) [nM] | GT6a(K34R)/1b EC50 Ratio (GT6aRluc-K34R replicon; Table 5) | EC50 (GT6aRluc-K272R replicon; [3]) [nM] | GT6a(K272R)/1b EC50 ratio (GT6aRluc-K272R replicon; Table 5) | EC50 (Pi-GT1b-Rluc replicon; [4]) [nM] | EC50 (Pi-GT6a-Rluc replicon; [5]) [nM] | GT6a/GT1b EC50 ratio (Pi-GT6a-Rluc replicon; Table 4) | EC50 (GT6aRluc-K34R replicon; [6]) [nM] | EC50 (GT6aRluc-K272R replicon; [7]) [nM] | EC50 (Pi-GT6a-Rluc replicon) [nM] | antiviral activity against GT6a compared with GT1b (Pi-GT6a-Rluc replicon; summary of Table 4) |
| --- | --- | --- | --- | --- | --- | --- | --- | --- | --- | --- | --- | --- |
| COc1ccc2c(O[C@@H]3C[C@H]4C(=O)N[C@]5(C(=O)O)C[C@H]5/C=C\CCCCC[C@H](NC(=O)OC5CCCC5)C(=O)N4C3)cc(-c3csc(NC(C)C)n3)nc2c1 [BILN-2061] | 0.99 ± 0.1 | 17 ± 9 | 17.2 | 17 | 17.2 |  |  |  |  |  |  |  |
| CC(C)(C)NC(=O)N[C@H](C(=O)N1C[C@H]2[C@@H]([C@H]1C(=O)NC(CC1CCC1)C(=O)C(N)=O)C2(C)C)C(C)(C)C (some centres unmarked) [Boceprevir, boceprevir] | 181 ± 42 | 168 ± 21 | 0.9 | 185 ± 42 | 1 | 188 ± 42 | 177 ± 21 | 0.9 |  |  |  |  |
| CCC1C[C@]1(NC(=O)[C@@H]1C[C@@H](Oc2cc(-c3csc(NC(C)C)n3)nc3c(Cl)c(OCCN4CCOCC4)ccc23)CN1C(=O)[C@@H](NC(=O)O[C@@H]1C[C@@H]2C[C@@H]2C1)C(C)(C)C)C(=O)O (some centres unmarked) [Compound A] |  |  |  |  |  | 8.3 ± 1.6 | 72 ± 25 | 8.7 |  |  |  |  |
| COC(=O)N[C@H](C(=O)N1CC2(CC2)C[C@H]1c1nc(-c2ccc3c(c2)C(F)(F)c2cc(-c4ccc5cc([C@@H]6[C@H]7CC[C@H](C7)N6C(=O)[C@@H](NC(=O)OC)C(C)C)[nH]c5c4)ccc2-3)c[nH]1)C(C)C [Compound B] |  |  |  |  |  | 0.007 ± 0.003 | 0.79 ± 0.05 | 113 |  |  |  |  |
| CC1=CC[C@H](C(=O)N(c2cc(C#CC(C)(C)C)sc2C(=O)O)[C@H]2CC[C@](O)(CO[C@H]3CCOC3)CC2)CC1 [Compound C] | 3.5 ± 0.3 |  | 250.6 |  | 210.3 | 3.5 ± 0.3 | 877 ± 4 | 251 | 877 ± 4 | 736 ± 18 |  |  |
| COC(=O)N[C@H](C(=O)N1CCC[C@H]1c1nc(-c2ccc(-c3ccc(-c4c[nH]c([C@@H]5CCCN5C(=O)[C@@H](NC(=O)OC)C(C)C)n4)cc3)cc2)c[nH]1)C(C)C [Daclatasvir, daclatasvir] | 0.034 ± 0.018 |  | 1.2 |  | 2.4 | 0.034 ± 0.018 | 0.06 ± 0.03 | 1.8 | 0.04 ± 0.01 | 0.08 ± 0.04 |  |  |
| CCc1cc(CC[C@]2(C3CCCC3)CC(O)=C(Cc3nc4nc(C)cc(C)n4n3)C(=O)O2)cc(CC)n1 [Filibuvir, filibuvir] | 112 ± 13 |  | >40 |  | 31.6 | 112 ± 13 |  | 32 | > 4440 | 3540 ± 93 | 3540 ± 93 |  |
| CNC(=O)c1c(-c2ccc(F)cc2)oc2cc(N(CCO)S(C)(=O)=O)c(C3CC3)cc12 [HCV-796] | 20 ± 5.5 |  | 1.1 |  | 1.1 | 20 ± 5.5 | 21 ± 0.5 | 1.0 | 21 | 21 |  | retained activity against GT6a |
| CN(C)CCN(C)[C@H]1COc2ccccc2-c2c(C3CCCCC3)c3ccc(C(=O)O)cc3n2C1 [MK-3281] | 534 ± 47 |  | 2.4 |  | 2.5 |  |  |  | 1280 ± 471 | 1310 ± 635 |  |  |
| C=C[C@@H]1C[C@]1(NC(=O)[C@@H]1C[C@@H]2CN1C(=O)[C@H](C(C)(C)C)NC(=O)O[C@@H]1C[C@H]1CCCCCc1nc3ccc(OC)cc3nc1O2)C(=O)NS(=O)(=O)C1CC1 [MK-5172] | 0.74 ± 0.07 |  | 1.9 |  | 4.1 | 0.74 ± 0.07 |  | 3.1 | 1.4 ± 0.3 | 3 ± 0.4 | 2.3 ± 0.3 |  |
| CC(C)OC(=O)[C@H](C)N[P@](=O)(OC[C@H]1O[C@@H](n2ccc(=O)[nH]c2=O)[C@](C)(F)[C@@H]1O)Oc1ccccc1 [Sofosbuvir, sofosbuvir] | 39 ± 1.1 |  | 0.4 |  | 0.4 | 39 ± 1.1 | 14 ± 4.1 | 0.4 | 14 ± 4 | 14 ± 5 |  |  |
| Fc1ccccc1-c1nc2ccn(Cc3ccc(-c4ccc(C(F)(F)F)cc4C(F)(F)F)nn3)cc-2n1 [Tegobuvir, tegobuvir] | 2.6 ± 0.2 |  | 45.8 |  | 42.3 | 2.6 ± 0.2 | 119 ± 6 | 46 | 119 ± 6 | 110 ± 21 |  |  |
| CCC[C@H](NC(=O)[C@@H]1[C@H]2CCC[C@H]2CN1C(=O)[C@@H](NC(=O)[C@@H](NC(=O)c1cnccn1)C1CCCCC1)C(C)(C)C)C(=O)C(=O)NC1CC1 [Telaprevir] | 428 ± 22 |  | 0.8 |  | 0.5 | 428 ± 22 | 349 ± 20 | 0.8 | 349 ± 20 | 208 ± 41 |  |  |
